Here are results for 32 molecules from patent US11667651B2, “Aminopyridine derivatives as phosphatidylinositol phosphate kinase inhibitors” (HiberCell, Inc., priority 2017, dated 2023).

Bounds are passed on as bounds.

This test addresses T1, PIP4K2A (Homo sapiens, UniProt P48426).
T1 sequence (P48426 1-406): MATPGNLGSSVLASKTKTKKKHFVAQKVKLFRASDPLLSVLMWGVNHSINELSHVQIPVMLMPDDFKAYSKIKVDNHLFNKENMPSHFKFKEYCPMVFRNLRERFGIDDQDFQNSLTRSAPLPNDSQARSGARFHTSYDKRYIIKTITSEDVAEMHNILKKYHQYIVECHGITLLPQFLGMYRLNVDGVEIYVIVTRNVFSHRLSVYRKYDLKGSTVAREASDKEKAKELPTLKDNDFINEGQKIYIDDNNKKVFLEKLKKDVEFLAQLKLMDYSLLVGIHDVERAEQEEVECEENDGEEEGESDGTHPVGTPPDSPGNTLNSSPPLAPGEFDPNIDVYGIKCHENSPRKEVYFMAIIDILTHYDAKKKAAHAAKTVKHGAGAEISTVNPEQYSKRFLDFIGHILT
The test is described as follows: Kinase Assay PIP4K2 A (Table 2). More on the design: 4 nM PIP4K2A (full length protein, SignalChem); purchased SignalChem. To be noted: compounds listed under IC50 bins. It counts as biochemical. The protocol:
Dilution series of the compounds were prepared in DMSO at 100 times the final assay concentration (n1=n0/3 in 10 points). The compounds were further diluted to three times the assay concentration in assay buffer (20 mM MOPS pH 7.2, 25 mM magnesium chloride, 0.005% Tween 20). 6 μL of the diluted compounds were added to a 384 well assay plate followed by 9 μL of a mix consisting of 4 nM PIP4K2A (full length protein, SignalChem) and 100 μM PI(5)P diC8 (Tebu-Bio). Enzyme and compounds were pre-incubated at room temperature for 15 minutes.
Then 3 μL of a solution containing 60 μM ATP (Promega) in assay buffer was added to the wells containing compound and enzyme and mixing was performed by pipetting several times. The reaction was incubated at room temperature for 1 h. Then 18 μL of ADP-Glo™ Reagent (Promega) was added to stop the kinase reaction and deplete the unconsumed ATP, mixing was performed by pipetting several times. The plate was incubated at room temperature for 40 minutes before addition of 36 μL of Kinase Detection Reagent (Promega) to convert ADP to ATP and introduce luciferase and luciferin to detect ATP. The reaction was incubated at room temperature for 40 minutes before the luminescence was measured in a in a Victor 3V 1420 multilabel counter (Perkin Elmer).
Percent inhibition of the compounds as compared to dimethyl sulfoxide treated control samples was calculated. Compound concentration versus percent inhibition were fitted to generate IC50 values.

As to `CN(C)C(=O)c1ccc(-c2cnc(Nc3cccnc3)cn2)cc1` [Example 18, N,N-dimethyl-4-(5-(pyridin-3-ylamino)pyrazin-2-yl)benzamide], the IC50 fell in the range of 0.1 to 1 µM. `CN(C)C(=O)c1ccc(-c2ccc(Nc3cncc(N4CCN(CC5CCCO5)C4=O)c3)nc2)cc1` (centres unmarked) [Example 77, N,N-dimethyl-4-(6-((5-(2-oxo-3-((tetrahydrofuran-2-yl)methyl)imidazolidin-1-yl)pyridin-3-yl)amino)pyridin-3-yl)benzamide]: the concentration for half-maximal inhibition (IC50) was in the range of 0.01 to 0.1 µM. Then `CN(C)C(=O)c1ccc(-c2ccc(Nc3cncc(N(C4CC4)S(C)(=O)=O)c3)nc2)cc1` [Example 28, 4-(6-((5-(N-cyclopropylmethylsulfonamido)pyridin-3-yl)amino)pyridin-3-yl)-N,N-dimethylbenzamide], with 0.01 to 0.1 µM; and `CN(Cc1ccco1)C(=O)c1ccc(-c2ccc(Nc3cccnc3)nc2)cc1` [Example 69, N-(furan-2-ylmethyl)-N-methyl-4-(6-(pyridin-3-ylamino)pyridin-3-yl)benzamide], with 0.1 to 1 µM; and `CN(C)C(=O)c1ccc(-c2ccc(Nc3cnc4c(c3)N(S(C)(=O)=O)CCO4)nc2)cc1` [Example 217, N,N-dimethyl-4-(6-((1-(methylsulfonyl)-2,3-dihydro-1H-pyrido[2,3-b][1,4]oxazin-7-yl)amino)pyridin-3-yl)bnzamide], with 0.01 to 0.1 µM. Take `Cc1ncccc1Nc1ccc(-c2ccc(C(=O)N(C)C)cc2)cn1` [Example 35, N,N-dimethyl-4-(6-((2-methylpyridin-3-yl)amino)pyridin-3-yl)benzamide]: the IC50 was > 1 µM.

For `CN(C)C(=O)c1ccc(-c2ccc(Nc3cncc(N4CCCC4=O)c3)nc2)cc1F` [Example 12, 2-fluoro-N,N-dimethyl-4-(6-((5-(2-oxopyrrolidin-1-yl)pyridin-3-yl)amino)pyridin-3-yl)benzamide], the IC50 was 0.01 to 0.1 µM. Consider `CN(C)C(=O)c1ccc(-c2ccc(Nc3cncc(N4CCNC4=O)c3)nc2)cc1` [Example 75, N,N-dimethyl-4-(6-((5-(2-oxoimidazolidin-1-yl)pyridin-3-yl)amino)pyridin-3-yl)benzamide], for which the IC50 was 0.01 to 0.1 µM. `CN(C)C(=O)c1ccc(-c2cnc(Nc3cncc(N4CCN(Cc5ccccc5)C4=O)c3)cn2)cc1` [Example 23, 4-(5-((5-(3-benzyl-2-oxoimidazolidin-1-yl)pyridin-3-yl)amino)pyrazin-2-yl)-N,N-dimethylbenzamide] had an IC50 of 0.001 to 0.01 µM. Consider `CCc1cc(Nc2cccnc2)ncc1-c1ccc(C(=O)N(C)C)cc1` [Example 17, 4-(4-ethyl-6-(pyridin-3-ylamino)pyridin-3-yl)-N,N-dimethylbenzamide], for which the IC50 fell in the range of 0.1 to 1 µM.

For the molecule `CN(C)C(=O)C1CC=C(c2ccc(Nc3cccnc3)nc2)CC1` (centres unmarked) [Example 6, N,N-dimethyl-4-(6-(pyridin-3-ylamino)pyridin-3-yl)cyclohex-3-ene-1-carboxamide], the IC50 is > 1 µM.

`CN(C)C(=O)c1cc(F)c(-c2ccc(Nc3cncc(N4CCCC4=O)c3)nc2)cc1F` [Example 14, 2,5-difluoro-N,N-dimethyl-4-(6-((5-(2-oxopyrrolidin-1-yl)pyridin-3-yl)amino)pyridin-3-yl)benzamide] showed a concentration for half-maximal inhibition (IC50) of 0.1 to 1 µM.

As to `CN(C)C(=O)c1ccc(-c2ccc(Nc3cncc(C4(C#N)CC4)c3)nc2)cc1` [Example 40, 4-(6-((5-(1-cyanocyclopropyl)pyridin-3-yl)amino)pyridin-3-yl)-N,N-dimethylbenzamide], the IC50 lay within 0.01 to 0.1 µM. `Cc1ncc(Nc2ccc(-c3ccc(C(=O)N(C)C)cc3)cn2)cn1` [Example 33, N,N-dimethyl-4-(6-((2-methylpyrimidin-5-yl)amino)pyridin-3-yl)benzamide]: the IC50 was > 1 µM. `CN(C)C(=O)c1ccc(-c2ccc(Nc3cccnc3)nc2)cc1` [Example 1, N,N-dimethyl-4-(6-(pyridin-3-ylamino)pyridin-3-yl)benzamide] returned an IC50 of 0.1 to 1 µM. `COc1ncc(Nc2ccc(-c3ccc(C(=O)N(C)C)cc3)cn2)cn1` [Example 34, 4-(6-((2-methoxypyrimidin-5-yl)amino)pyridin-3-yl)-N,N-dimethylbenzamide] showed a half-maximal inhibitory concentration (IC50) of 0.1 to 1 µM. Molecule `CC(C)S(=O)(=O)N(C)c1cncc(Nc2ccc(-c3ccc(C(=O)N(C)C)cc3)cn2)c1` [Example 26, N,N-dimethyl-4-(6-((5-(N-methylpropan-2-ylsulfonamido)pyridin-3-yl)amino)pyridin-3-yl)benzamide] yielded an IC50 of 0.01 to 0.1 µM. Take `CNC(=O)c1ccc(-c2ccc(Nc3cncc(N4CCCC4=O)c3)nc2)cc1` [Example 219, N-methyl-4-(6-((5-(2-oxopyrrolidin-1-yl)pyridin-3-yl)amino)pyridin-3-yl)benzamide]: the half-inhibitory concentration (IC50) was > 1 µM. `CN(C)C(=O)c1ccc(-c2ccc(Nc3cncnc3)nc2)cc1` [Example 32, N,N-dimethyl-4-(6-(pyrimidin-5-ylamino)pyridin-3-yl)benzamide] came in with a half-maximal inhibitory concentration (IC50) of 0.1 to 1 µM. `CN(C)C(=O)c1ccc(-c2ccc(Nc3cncc(N(C)C(=O)C4CC4c4ccccc4)c3)nc2)cc1` (centres unmarked) [Example 52, N,N-dimethyl-4-(6-((5-(N-methyl-2-phenylcyclopropane-1-carboxamido)pyridin-3-yl)amino)pyridin-3-yl)benzamide] came in with a half-maximal inhibitory concentration (IC50) of 0.01 to 0.1 µM.

`CN(Cc1ccccc1)C(=O)c1ccc(-c2ccc(Nc3cccnc3)nc2)cc1` [Example 67, N-benzyl-N-methyl-4-(6-(pyridin-3-ylamino)pyridin-3-yl)benzamide] gave an IC50 of 0.1 to 1 µM. The value for `CN(C)C(=O)c1ccc(-c2ccc(Nc3cncc(N4CCN(C)C4=O)c3)nc2)cc1` [Example 72, N,N-dimethyl-4-(6-((5-(3-methyl-2-oxoimidazolidin-1-yl)pyridin-3-yl)amino)pyridin-3-yl)benzamide] was 0.01 to 0.1 µM; that for `O=C(c1ccc(-c2ccc(Nc3cccnc3)nc2)cc1)N1CCC1` [Example 11, azetidin-1-yl(4-(6-(pyridin-3-ylamino)pyridin-3-yl)phenyl)methanone] was 0.01 to 0.1 µM. Then `O=C(c1ccc(-c2ccc(Nc3cccnc3)nc2)cc1)N1CCCC1` [Example 66, (4-(6-(pyridin-3-ylamino)pyridin-3-yl)phenyl)(pyrrolidin-1-yl)methanone], with > 1 µM; and `CN(C)C(=O)c1ccc(-c2ccc(Nc3cncc(N4CCCC4=O)c3)nc2)c(F)c1` [Example 13, 3-fluoro-N,N-dimethyl-4-(6-((5-(2-oxopyrrolidin-1-yl)pyridin-3-yl)amino)pyridin-3-yl)benzamide], with 0.01 to 0.1 µM; and `CC(=O)Nc1ccc(-c2ccc(C(=O)N(C)C)cc2)cn1` [Example 220, 4-(6-acetamidopyridin-3-yl)-N,N-dimethylbenzamide], with > 1 µM. Then `CN(C)C(=O)c1cc(F)c(-c2cnc(Nc3cncc(N4CCCC4=O)c3)cn2)cc1F` [Example 22, 2,5-difluoro-N,N-dimethyl-4-(5-((5-(2-oxopyrrolidin-1-yl)pyridin-3-yl)amino)pyrazin-2-yl)benzamide], with > 1 µM. As to `CN(C)C(=O)c1ccc(-c2ccc(Nc3cncc(C(=O)N(C)C)c3)nc2)cc1` [Example 37, 5-((5-(4-(dimethylcarbamoyl)phenyl)pyridin-2-yl)amino)-N,N-dimethylnicotinamide], the half-inhibitory concentration (IC50) is > 1 µM. Then `COc1ccc(CN2CCN(c3cncc(Nc4ccc(-c5ccc(C(=O)N(C)C)cc5)cn4)c3)C2=O)cc1` [Example 74, 4-(6-((5-(3-(4-methoxybenzyl)-2-oxoimidazolidin-1-yl)pyridin-3-yl)amino)pyridin-3-yl)-N,N-dimethylbenzamide], with 0.001 to 0.01 µM. The value for `CN(C)C(=O)c1ccc(-c2ccc(Nc3cncc(N4CCN(Cc5cccnc5)C4=O)c3)nc2)cc1` [Example 76, N,N-dimethyl-4-(6-((5-(2-oxo-3-(pyridin-3-ylmethyl)imidazolidin-1-yl)pyridin-3-yl)amino)pyridin-3-yl)benzamide] was 0.001 to 0.01 µM; that for `CN(C)C(=O)c1ccc(-c2ccc(Nc3cncc(N4CCN(Cc5cscn5)C4=O)c3)nc2)cc1` [Example 78, N,N-dimethyl-4-(6-((5-(2-oxo-3-(thiazol-4-ylmethyl)imidazolidin-1-yl)pyridin-3-yl)amino)pyridin-3-yl)benzamide] was 0.001 to 0.01 µM. In the case of `CN(C)C(=O)c1ccc(-c2ccc(Nc3cncc(C#N)c3)nc2)cc1` [Example 30, 4-(6-((5-cyanopyridin-3-yl)amino)pyridin-3-yl)-N,N-dimethylbenzamide], the IC50 was 0.1 to 1 µM.
